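Five concentrations, 48 hours, 96-well plates. GI50 = concentration required for 50% inhibition of growth.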 The source made the active and inactive calls. Cut-off read from the data, not from the text of the source: active = GI50 up to about 1.1 µM and inactive = higher.
What was measured:
Assay in all cases: NCI tumour cell line growth inhibition, 48 h
KM12 = tested on: KM12
T47D = tested on: T47D
NCI-H460 = tested on: NCI-H460
NCI-H23 = tested on: NCI-H23
CCRF-CEM = tested on: CCRF-CEM
LOX IMVI = tested on: LOX IMVI
A549 = tested on: A549
MDA-MB-435 = tested on: MDA-MB-435
PC-3 = tested on: PC-3
OVCAR-3 = tested on: OVCAR-3
NCI/ADR-RES = tested on: NCI/ADR-RES
SF-539 = tested on: SF-539
HOP-62 = tested on: HOP-62
DU-145 = tested on: DU-145
HOP-92 = tested on: HOP-92
SF-295 = tested on: SF-295
UACC-62 = tested on: UACC-62
U-251 = tested on: U-251
MDA-N = tested on: MDA-N
MDA-MB-231 = tested on: MDA-MB-231

SMILES | GI50 (KM12) | GI50 (T47D) | GI50 (NCI-H460) | GI50 (NCI-H23) | GI50 (CCRF-CEM) | GI50 (LOX IMVI) | GI50 (A549) | GI50 (MDA-MB-435) | GI50 (PC-3) | GI50 (OVCAR-3) | GI50 (NCI/ADR-RES) | GI50 (SF-539) | GI50 (HOP-62) | GI50 (DU-145) | GI50 (HOP-92) | GI50 (SF-295) | GI50 (UACC-62) | GI50 (U-251) | GI50 (MDA-N) | GI50 (MDA-MB-231)
CN(CCCNC(=O)c1nn(-c2ccccc2)c2c1Cc1ccccc1-2)CCCNC(=O)c1nn(-c2ccccc2)c2c1Cc1ccccc1-2 | 1.9 µM (inactive) | 1.92 µM (inactive) | 1.66 µM (inactive) | 1.57 µM (inactive) | 1 µM (active) | 1.51 µM (inactive) | 1.66 µM (inactive) | 1.23 µM (inactive) | 1.69 µM (inactive) | 1.71 µM (inactive) | 1.63 µM (inactive) | 1.59 µM (inactive) | 1.58 µM (inactive) | 1.7 µM (inactive) | 1.57 µM (inactive) | 1.84 µM (inactive) | 1.77 µM (inactive) | 1.7 µM (inactive) | 1.5 µM (inactive) | 1.76 µM (inactive)
CCOC(=O)C(C)c1nc2cc(C(F)(F)F)ccc2[nH]c1=O (stereo not given) | > 100 µM (inactive) | 15.4 µM (inactive) | > 100 µM (inactive) | 81.7 µM (inactive) | > 100 µM (inactive) | > 100 µM (inactive) | > 100 µM (inactive) | > 100 µM (inactive) | 49 µM (inactive) | 82 µM (inactive) | 47.8 µM (inactive) | > 100 µM (inactive) | > 100 µM (inactive) | 84.5 µM (inactive) | 71.1 µM (inactive) | 49.2 µM (inactive) | > 100 µM (inactive) | > 100 µM (inactive) | > 100 µM (inactive) | > 100 µM (inactive)
CCOc1ccc(/N=N/C2C(=O)N(C(=O)CC(=O)Nc3ccc(Cl)cc3)N=C2C)cc1 (stereo not given) | > 100 µM (inactive) | > 100 µM (inactive) | > 100 µM (inactive) | > 100 µM (inactive) | > 100 µM (inactive) | > 100 µM (inactive) | > 100 µM (inactive) | > 100 µM (inactive) | > 100 µM (inactive) | > 100 µM (inactive) | > 100 µM (inactive) | > 100 µM (inactive) | > 100 µM (inactive) | > 100 µM (inactive) | > 100 µM (inactive) | > 100 µM (inactive) | > 100 µM (inactive) | > 100 µM (inactive) | > 100 µM (inactive) | > 100 µM (inactive)
COc1ccc(C(=O)Nc2ccc3oc(-c4ccccc4)nc3c2)cc1 | > 100 µM (inactive) | > 100 µM (inactive) | > 100 µM (inactive) | > 100 µM (inactive) | > 100 µM (inactive) | > 100 µM (inactive) | > 100 µM (inactive) | > 100 µM (inactive) | > 100 µM (inactive) | > 100 µM (inactive) | 70.1 µM (inactive) | 32.5 µM (inactive) | 76.6 µM (inactive) | > 100 µM (inactive) | > 100 µM (inactive) | > 100 µM (inactive) | > 100 µM (inactive) | 61.7 µM (inactive) | > 100 µM (inactive) | > 100 µM (inactive)
CCN1c2cc(Br)cc3[nH]c(=O)n(c23)CCC1C (stereo not given) | 15.1 µM (inactive) | 17.4 µM (inactive) | 17 µM (inactive) | 21.7 µM (inactive) | 12 µM (inactive) | 11.5 µM (inactive) | 15.1 µM (inactive) | 4.18 µM (inactive) | 17.2 µM (inactive) | 14.6 µM (inactive) | 5.7 µM (inactive) | 34.2 µM (inactive) | 18 µM (inactive) | 18.3 µM (inactive) | 1.49 µM (inactive) | 16 µM (inactive) | 5.16 µM (inactive) | 14.8 µM (inactive) | 4.89 µM (inactive) | 17.3 µM (inactive)
CCn1cnc2c(NC(C)=O)ncnc21 | > 100 µM (inactive) | > 100 µM (inactive) | > 100 µM (inactive) | > 100 µM (inactive) | > 100 µM (inactive) | > 100 µM (inactive) | > 100 µM (inactive) | > 100 µM (inactive) | > 100 µM (inactive) | > 100 µM (inactive) | > 100 µM (inactive) | > 100 µM (inactive) | > 100 µM (inactive) | > 100 µM (inactive) | > 100 µM (inactive) | > 100 µM (inactive) | > 100 µM (inactive) | > 100 µM (inactive) | > 100 µM (inactive) | > 100 µM (inactive)
CC(C)(C)c1cc(OCc2nnc(S)n2N)c(Cl)cc1OCc1nnc(S)n1N | 40.9 µM (inactive) | 30.6 µM (inactive) | 24 µM (inactive) | 42.8 µM (inactive) | 22.9 µM (inactive) | 34.8 µM (inactive) | 52.2 µM (inactive) | 39.5 µM (inactive) | 28.2 µM (inactive) | 32.4 µM (inactive) | > 100 µM (inactive) | 48.3 µM (inactive) | 59 µM (inactive) | 59 µM (inactive) | 28.1 µM (inactive) | 43.1 µM (inactive) | 20.7 µM (inactive) | 29.7 µM (inactive) | 41.3 µM (inactive) | 27.5 µM (inactive)
CCCCCCc1cc(C=O)sc1-c1ccc(-c2sc(-c3ccc(-c4ccc(-c5cc(CCCCCC)c(-c6ccc(-c7sc(C=O)cc7CCCCCC)s6)s5)s4)s3)cc2CCCCCC)s1 | > 100 µM (inactive) | > 100 µM (inactive) | > 100 µM (inactive) | > 100 µM (inactive) | > 100 µM (inactive) | > 100 µM (inactive) | > 100 µM (inactive) | > 100 µM (inactive) | > 100 µM (inactive) | > 100 µM (inactive) | > 100 µM (inactive) | > 100 µM (inactive) | > 100 µM (inactive) | > 100 µM (inactive) | > 100 µM (inactive) | > 100 µM (inactive) | > 100 µM (inactive) | > 100 µM (inactive) | > 100 µM (inactive) | > 100 µM (inactive)
Cn1c2ccccc2c2c3c(c4c5ccccc5n(C)c4c21)C(=O)N(c1ccccc1)C3=O | > 100 µM (inactive) | > 100 µM (inactive) | > 100 µM (inactive) | > 100 µM (inactive) | > 100 µM (inactive) | > 100 µM (inactive) | > 100 µM (inactive) | > 100 µM (inactive) | > 100 µM (inactive) | > 100 µM (inactive) | > 100 µM (inactive) | > 100 µM (inactive) | > 100 µM (inactive) | > 100 µM (inactive) | > 100 µM (inactive) | > 100 µM (inactive) | > 100 µM (inactive) | > 100 µM (inactive) | > 100 µM (inactive) | > 100 µM (inactive)
CCN1CN(c2ccccc2)C2(CCN(CC(CC3OCCO3)c3ccc(F)cc3)CC2)C1=O (stereo not given) | 10.7 µM (inactive) | 5.13 µM (inactive) | 14.7 µM (inactive) | 12.5 µM (inactive) | 3.65 µM (inactive) | 7.43 µM (inactive) | 5.24 µM (inactive) | 14.8 µM (inactive) | 22.6 µM (inactive) | 18.8 µM (inactive) | 10.5 µM (inactive) | 9.53 µM (inactive) | 4.23 µM (inactive) | 4.2 µM (inactive) | 2.13 µM (inactive) | 5.69 µM (inactive) | 18.1 µM (inactive) | 14.9 µM (inactive) | 8.49 µM (inactive) | 16.1 µM (inactive)
COC1C(OC(=O)/C=C/C=C/C=C/C=C/C(=O)O)CCC2(CO2)C1C1(C)OC1CC=C(C)C (stereo not given) | 12.4 µM (inactive) | 18.4 µM (inactive) | 0.112 µM (active) | 25 µM (inactive) | 21.4 µM (inactive) | 17.4 µM (inactive) | 18.5 µM (inactive) | 14.6 µM (inactive) | 15.2 µM (inactive) | 29.2 µM (inactive) | > 63.8 µM (inactive) | 42.3 µM (inactive) | 62.1 µM (inactive) | 35.2 µM (inactive) | 27.4 µM (inactive) | 17.3 µM (inactive) | 16.1 µM (inactive) | 18.5 µM (inactive) | 20.5 µM (inactive) | 21.3 µM (inactive)
O[C@@]1(c2cccs2)c2cccc(Cl)c2[C@](O)(c2cccs2)c2cccc(Cl)c21 | 16.4 µM (inactive) | 32.9 µM (inactive) | 16.9 µM (inactive) | 18.1 µM (inactive) | 33.3 µM (inactive) | 16.4 µM (inactive) | 14.9 µM (inactive) | 17.2 µM (inactive) | 19.1 µM (inactive) | 16.3 µM (inactive) | 22.6 µM (inactive) | 29.2 µM (inactive) | 26.1 µM (inactive) | 24.7 µM (inactive) | 67.9 µM (inactive) | 11.1 µM (inactive) | 11 µM (inactive) | 16.8 µM (inactive) | 16.8 µM (inactive) | 17.3 µM (inactive)
CCOC(=O)CNC(=O)C(CSC(=O)N(O)c1ccc(Cl)cc1)NC(=O)CCC(N)C(=O)OCC (stereo not given) | 12.2 µM (inactive) | > 50 µM (inactive) | > 50 µM (inactive) | > 50 µM (inactive) | > 50 µM (inactive) | > 50 µM (inactive) | > 50 µM (inactive) | 30.1 µM (inactive) | > 50 µM (inactive) | > 50 µM (inactive) | > 50 µM (inactive) | > 50 µM (inactive) | 24.3 µM (inactive) | > 50 µM (inactive) | 3.98 µM (inactive) | > 50 µM (inactive) | > 50 µM (inactive) | > 50 µM (inactive) | 36 µM (inactive) | 21 µM (inactive)
CC(=O)OC1(C)CC(C)C(=O)C(C(O)CC2CC(=O)NC(=O)C2)C1 (stereo not given) | 0.00746 µM (active) | 0.0179 µM (active) | 0.0121 µM (active) | 0.00807 µM (active) | 0.00507 µM (active) | 0.013 µM (active) | 0.00729 µM (active) | 0.0148 µM (active) | 0.0199 µM (active) | 0.0236 µM (active) | 0.0386 µM (active) | 0.0145 µM (active) | 0.0193 µM (active) | 0.0118 µM (active) | 0.00172 µM (active) | 0.0127 µM (active) | 0.082 µM (active) | 0.00697 µM (active) | 0.0166 µM (active) | 0.0137 µM (active)

Reference: ChEMBL document CHEMBL1201862, “PubChem BioAssay data set” (2004)
